{"source": "patent US12643867B2", "about": "“Compositions and uses thereof” (University of Virginia Patent Foundation, priority 2017, dated 2026)", "assay_type_in_all_cases": "binding", "key": {"[1]": {"target": "T1, M4K3 (Mitogen-activated protein kinase kinase kinase kinase 3) (Homo sapiens, UniProt Q8IVH8)", "T1 construct": "Native kinases; endogenous in cells; host or cells: HEK293T soluble proteome", "T1 sequence (Q8IVH8 1-894)": "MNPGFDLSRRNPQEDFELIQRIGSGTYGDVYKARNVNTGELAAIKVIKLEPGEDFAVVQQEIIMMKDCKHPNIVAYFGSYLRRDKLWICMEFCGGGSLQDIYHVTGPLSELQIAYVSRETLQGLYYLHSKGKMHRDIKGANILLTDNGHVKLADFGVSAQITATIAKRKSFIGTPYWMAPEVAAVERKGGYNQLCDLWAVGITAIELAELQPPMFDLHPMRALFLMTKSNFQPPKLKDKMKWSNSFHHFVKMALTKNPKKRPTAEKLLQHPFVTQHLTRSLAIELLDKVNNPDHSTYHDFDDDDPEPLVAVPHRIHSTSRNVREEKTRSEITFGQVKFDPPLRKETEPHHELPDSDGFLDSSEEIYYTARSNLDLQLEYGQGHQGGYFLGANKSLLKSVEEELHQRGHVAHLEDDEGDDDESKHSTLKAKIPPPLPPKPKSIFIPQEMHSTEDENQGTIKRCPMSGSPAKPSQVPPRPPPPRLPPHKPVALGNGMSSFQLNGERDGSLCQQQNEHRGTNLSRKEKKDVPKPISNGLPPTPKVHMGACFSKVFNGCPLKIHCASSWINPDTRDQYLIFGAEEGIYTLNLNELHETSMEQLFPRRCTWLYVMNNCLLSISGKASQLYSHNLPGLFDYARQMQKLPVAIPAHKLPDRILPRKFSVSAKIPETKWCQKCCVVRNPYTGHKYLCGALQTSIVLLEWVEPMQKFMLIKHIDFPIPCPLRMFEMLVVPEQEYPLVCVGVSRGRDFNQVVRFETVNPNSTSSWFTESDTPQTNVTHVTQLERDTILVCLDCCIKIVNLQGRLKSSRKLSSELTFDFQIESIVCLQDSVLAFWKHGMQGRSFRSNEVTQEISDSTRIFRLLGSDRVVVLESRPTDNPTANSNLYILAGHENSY", "assay": "SILAC LC-MS ATP acyl phosphate probe competition, native kinases in HEK293T", "conditions": "site Lys2; ATP 1 mM; Ketanserin, Ritanserin 100 μM; RF001 1 mM", "procedure": "(§1) Proteomes were diluted to 2 mg/ml in kinase buffer. The light and heavy proteomes (0.5 mg, 250 μL total reaction volume) were pre-treated with vehicle or compound, respectively (5 μL, DMSO (light) or 50× stock in DMSO (heavy)), mixed gently, and incubated at 25° C. for 30 min. […] After incubation, matched light and heavy proteomes were transferred and mixed in a 1:1 ratio in a two-dram vial containing 4:1:3 MeOH/CHCl3/H2O (2 mL MeOH, 500 AL CHCl3, 1.5 mL H2O) for extraction of proteins to remove excess probe, quickly vortexed, and centrifuged at 1,400×g for 3 min to pellet protein. Organic and aqueous layers were removed using a Pasteur pipette, and the protein pellet was transferred to a screw-top tube in 600 μL MeOH. A second extraction was performed by adding CHCl3 (150 μL) and H2O (600 μL) to each sample, vortexed, and centrifuged at 1,400×g for 3 min to pellet protein. Organic and aqueous layers were removed by pipetting. MeOH added to pellet (600 μL) and pellets were re-suspended by sonication (3×1 sec pulse, 20% amplitude) for a final extraction. Samples were then centrifuged at 17,000×g for 5 min to pellet protein and MeOH was removed by pipetting. The pellets were re-suspended in 10 M urea/25 mM ammonium bicarbonate ([…]), brought to a final volume of 1 mL with 25 mM ammonium bicarbonate, reduced with 10 mM DTT for 15 min at 65° C. allowed to cool, and then alkylated with 40 mM iodoacetamide for 30 min at 25° C. in the dark. To desalt the samples, each was transferred to a two-dram glass vial, and to the vial 4:1:2 MeOH/CHCl3/H2O (2 mL MeOH, 500 AL CHCl3, 1 mL H2O) was added. The vials were vortexed quickly, spun at 1.400×g for 3 min to pellet protein, and aqueous and organic layers were removed using a Pasteur pipette. The resulting protein pellet was transferred to a screw-top tube in 600 μL MeOH, and then CHCl3 (150 μL) and HO (600 μL) were added to extract protein a second time. The samples were vortexed quickly, centrifuged at 1,400×g to pellet protein, and the aqueous and organic layers were removed by pipetting. Resulting protein pellet was suspended in MeOH (600 μL) via sonication (3×1 sec pulse, 20% amplitude), centrifuged at 17,000×g for 5 min to pellet protein, and MeOH removed by pipetting. Protein pellets were then re-suspended in 25 mM ammonium bicarbonate (500 μL) and digested with 7.5 μg Trypsin/Lys-C(Promega, 15 μL, 0.5 μg/μL) for 3 h at 37° C. Avidin-agarose beads (Thermo Scientific Pierce, 100 AL aliquot per sample) were washed three times by adding 10 mL DPBS, centrifuged at 1,400×g for 1 min, and decanting. This wash step was repeated for a total of 3 times. Digested protein samples were mixed with washed avidin beads (100 μL) and brought to a volume of 5.5 mL with DPBS in a 15 mL conical and rotated for 1 h to enrich samples for the covalent desthiobiotin modification. The beads were washed with 25 mM ammonium bicarbonate (3× with 10 mL, centrifuge at 1,400×g for 3 min, decant) and then H2O (3× with 10 mL, centrifuge at 1,400×g for 3 min, decant). Washed beads were then transferred to a low-bind microfuge tube, centrifuged at 1,400×g for 3 min, allowed to rest for 1 min to settle beads, and then excess H2O was removed carefully using a gel-loading pipette tip. To elute peptides, 100 μL of elution buffer (50% acetonitrile, ACN; 0.1% formic acid) was added to each sample and incubated for 3 min. Beads were spun down at 1.400×g for 3 min, allowed to rest for 1 min to settle beads, and then 75 μL of peptide-containing supernatant was removed carefully using a gel-loading pipette tip and transferred to a new low bind centrifuge tube. This step was repeated two more times with 75 μL of elution buffer and all eluent were collected into the same centrifuge tube (˜225 μL total). Peptides were dried on a speed vacuum, resulting peptide samples acidified in 5% (v/v) formic acid, and stored at −80° C. until analysis.\n(§2) The peptide samples were analyzed by liquid chromatography-mass spectrometry. […]"}, "[2]": {"target": "T2, BRAF (B-Raf proto-oncogene serine/threonine-protein kinase) (Homo sapiens, UniProt P15056)", "T2 construct": "measured against >50 native kinases quantified in HEK293T soluble proteomes; endogenous in cells; host or cells: HEK293T soluble proteome", "T2 sequence (P15056 whole entry)": "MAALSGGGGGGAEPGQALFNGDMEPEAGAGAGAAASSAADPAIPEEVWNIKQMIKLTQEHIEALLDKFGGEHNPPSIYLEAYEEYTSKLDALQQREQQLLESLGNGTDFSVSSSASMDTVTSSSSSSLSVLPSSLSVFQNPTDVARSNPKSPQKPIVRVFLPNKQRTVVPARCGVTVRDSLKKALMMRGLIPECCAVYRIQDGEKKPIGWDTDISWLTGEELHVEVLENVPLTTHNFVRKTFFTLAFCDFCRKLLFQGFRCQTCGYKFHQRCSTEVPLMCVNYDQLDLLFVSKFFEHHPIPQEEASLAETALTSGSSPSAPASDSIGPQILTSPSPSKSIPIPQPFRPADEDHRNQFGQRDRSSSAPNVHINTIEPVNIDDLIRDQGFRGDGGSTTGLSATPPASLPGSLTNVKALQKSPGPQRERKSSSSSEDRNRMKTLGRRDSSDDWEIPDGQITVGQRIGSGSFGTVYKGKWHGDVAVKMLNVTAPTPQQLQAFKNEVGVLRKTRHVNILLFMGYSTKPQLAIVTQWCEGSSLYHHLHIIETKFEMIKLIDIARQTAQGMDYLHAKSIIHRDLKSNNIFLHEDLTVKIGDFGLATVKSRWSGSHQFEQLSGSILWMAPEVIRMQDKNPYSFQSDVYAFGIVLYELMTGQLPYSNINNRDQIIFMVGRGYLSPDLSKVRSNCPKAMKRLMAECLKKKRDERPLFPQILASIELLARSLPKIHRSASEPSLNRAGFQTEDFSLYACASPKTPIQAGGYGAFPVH", "assay": "SILAC LC-MS ATP acyl phosphate probe competition, native kinases in HEK293T", "conditions": "site Lys2; ATP 1 mM; Ketanserin, Ritanserin 100 μM; RF001 1 mM", "procedure": "as §1, §2"}, "[3]": {"target": "T3, M4K5 (Mitogen-activated protein kinase kinase kinase kinase 5) (Homo sapiens, UniProt Q9Y4K4)", "T3 construct": "Native kinases; endogenous in cells; host or cells: HEK293T soluble proteome", "T3 sequence (Q9Y4K4 whole entry)": "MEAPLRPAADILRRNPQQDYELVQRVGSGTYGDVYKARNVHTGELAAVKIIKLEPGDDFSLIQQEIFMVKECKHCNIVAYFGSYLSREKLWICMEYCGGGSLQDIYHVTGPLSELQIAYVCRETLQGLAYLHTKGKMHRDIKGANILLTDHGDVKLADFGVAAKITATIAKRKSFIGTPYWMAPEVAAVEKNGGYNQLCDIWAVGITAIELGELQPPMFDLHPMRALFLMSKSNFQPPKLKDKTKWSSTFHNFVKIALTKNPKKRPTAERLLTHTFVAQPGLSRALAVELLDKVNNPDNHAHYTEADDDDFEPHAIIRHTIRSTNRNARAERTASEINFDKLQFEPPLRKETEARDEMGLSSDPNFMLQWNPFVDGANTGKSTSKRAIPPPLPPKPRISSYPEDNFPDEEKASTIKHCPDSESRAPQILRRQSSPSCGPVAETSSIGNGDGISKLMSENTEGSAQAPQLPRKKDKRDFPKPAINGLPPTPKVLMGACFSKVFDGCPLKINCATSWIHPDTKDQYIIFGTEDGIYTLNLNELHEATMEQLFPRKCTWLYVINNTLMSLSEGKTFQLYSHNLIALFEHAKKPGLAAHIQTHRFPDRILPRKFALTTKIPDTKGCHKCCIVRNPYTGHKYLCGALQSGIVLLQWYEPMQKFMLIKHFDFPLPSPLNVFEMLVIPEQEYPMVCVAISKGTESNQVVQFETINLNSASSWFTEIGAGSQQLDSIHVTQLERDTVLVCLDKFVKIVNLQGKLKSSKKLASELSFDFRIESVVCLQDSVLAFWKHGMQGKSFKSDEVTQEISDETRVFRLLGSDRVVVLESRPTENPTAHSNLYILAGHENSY", "assay": "SILAC LC-MS ATP acyl phosphate probe competition, native kinases in HEK293T", "conditions": "ATP 1 mM, Ketanserin, Ritanserin 100 μM, RF001 1 mM; for SILAC ratio, M4K5 Lys1 probe-modified peptide: site Lys1; for SILAC ratio, M4K5 Lys2 probe-modified peptide: site Lys2", "procedure": "as §1, §2"}, "[4]": {"test_system": "recombinant DGKs and native kinases in HEK293T proteomes", "assay": "Quantitative chemical proteomics, summary over kinases", "conditions": "for number of kinase targets that show SR≥2: recombinant DGKs and native kinases", "procedure": "as §1, §2"}}}
{"compound": "O=C(c1ccc(F)cc1)C1CCN(CCn2c(=O)[nH]c3ccccc3c2=O)CC1", "note": "[Ketanserin]", "values": [{"measurement": "SILAC ratio, M4K3 probe-modified peptide", "setting": "[1]", "result": 1.4}, {"measurement": "SILAC ratio, BRAF probe-modified peptide", "setting": "[2]", "result": 1.6}, {"measurement": "SILAC ratio, M4K5 Lys1 probe-modified peptide", "setting": "[3]", "result": 1.3}, {"measurement": "SILAC ratio, M4K5 Lys2 probe-modified peptide", "setting": "[3]", "result": 1.3}, {"measurement": "competition at probe-binding sites", "setting": "[4]; 100 μM", "result": "negligible competition at all probe-binding sites"}]}
{"compound": "Fc1ccc(C(=C2CCNCC2)c2ccc(F)cc2)cc1", "note": "[RF001, 4-(Bis(4-fluorophenyl)methylene) piperidine]", "values": [{"measurement": "SILAC ratio, M4K3 probe-modified peptide", "setting": "[1]", "result": 1.1}, {"measurement": "SILAC ratio, BRAF probe-modified peptide", "setting": "[2]", "result": 1.1}, {"measurement": "SILAC ratio, M4K5 Lys1 probe-modified peptide", "setting": "[3]", "result": 0.9}, {"measurement": "SILAC ratio, M4K5 Lys2 probe-modified peptide", "setting": "[3]", "result": 1.3}, {"measurement": "average SILAC ratio at all detected probe-modified sites of other DGK subtypes", "setting": "[4]; 1 mM", "result": "~1"}, {"measurement": "kinase targets with potent activity (SR≥5)", "setting": "[4]; all detectable kinases", "result": "a single kinase target"}, {"measurement": "number of kinase targets that show SR≥2", "setting": "[4]", "result": 3}]}
{"compound": "Cc1nc2sccn2c(=O)c1CCN1CCC(=C(c2ccc(F)cc2)c2ccc(F)cc2)CC1", "note": "[Ritanserin]", "values": [{"measurement": "SILAC ratio, M4K3 probe-modified peptide", "setting": "[1]", "result": 1.8}, {"measurement": "SILAC ratio, BRAF probe-modified peptide", "setting": "[2]", "result": 1.8}, {"measurement": "SILAC ratio, M4K5 Lys1 probe-modified peptide", "setting": "[3]", "result": 2.4}, {"measurement": "SILAC ratio, M4K5 Lys2 probe-modified peptide", "setting": "[3]", "result": 1.9}, {"measurement": "SILAC ratio at all binding sites detected, other DGK isoforms", "setting": "[4]; 100 μM", "result": "< 2"}, {"measurement": "number of kinase targets that show SR≥2", "setting": "[4]", "result": 25}]}
